These results are taken from PMC5050145 (European journal of nuclear medicine and molecular imaging, 2016).

What is called Ki is a measure of affinity in units of concentration, obtained from inhibition or displacement.

Where “and” joins values, the source holds several entries; their conditions need not be identical. Equal values may be shown once. A value given as a limit tells only on which side of the number the result lay.

A short description of data set [1]: Stability of the final product in formulation. Format: physicochemical. As to conditions: 3 h; buffered solution at pH 6.8.
A short description of data set [2]: Dosimetry: mouse microPET biodistribution extrapolated to humans. Format: in vivo, C57BL6 mice. The note with it: for effective dose: administered activity of 200 MBq.
Data set [3] is described as follows: In-vitro stability in human blood plasma. Format: in vitro ADME. The note with it: 2 h, 37 °C.
The nature of data set [4]: In-vitro stability in mouse blood plasma. Format: in vitro ADME. As to conditions: 2 h, 37 °C.
The nature of data set [5]: Biodistribution by microPET/CT imaging in C57BL6 mice. As to conditions: 1 h post-injection, microPET. Format: in vivo.
Data set [6] relates to LNCaP cells. The note with it: complexed to natGa; cited from earlier work.
Data set [7] addresses PSMA. The note with it: read-out: Ki value towards PSMA; complexed to natGa; cell-based assay; cited from earlier work.

In the case of `O=C([O-])CN(CCN(CC(=O)[O-])Cc1cc(CCC(=O)NCCCCCC(=O)NCCCC[C@H](NC(=O)N[C@@H](CCC(=O)O)C(=O)O)C(=O)O)ccc1O)Cc1cc(CCC(=O)O)ccc1O.[18F-].[Al+3]` [18F-PSMA-11], in data set [1], the “radiochemical purity in stability test” value is greater than 97%. Moreover, the “Mean RT (time-integrated activity coefficient) scaled to humans” value in data set [2] (Bone, Method 1) is reported as 0.045 ± 0.013 h; in data set [2] (Bone, Method 2), 0.114 ± 0.028 h; in data set [2] (Muscle, Method 2), 0.077 ± 0.018 h; in data set [2] (Tot. Kidney, Method 1) it was 0.141 ± 0.033 h; in data set [2] (Tot. Kidney, Method 2) it was 0.042 ± 0.009 h. In addition, the “mean extrapolated effective dose per unit activity” value is on record as 8.59 × 10^−3 ± 7.46 × 10^−4 mSv/MBq in data set [2] (Method 1) and 6.23 × 10^−3 ± 5.74 × 10^−4 mSv/MBq in data set [2] (second value, printed Method 1). Further, the effective dose in data set [2] (Method 1) is 1.72 mSv and 1.7 mSv; in data set [2] (Method 2) it was 1.25 mSv. The “maximum administered human activity limit” value in data set [2] (Method 2, kidneys dose-limiting, 21CFR361.1) is 1,742 MBq. For the same compound, the feasible injected activities result in data set [2] (most stringent dosimetric calculations) is “up to 0.56 GBq”. The intact compound in data set [3] is 94%; in data set [4] it was 91%. Moreover, in data set [5], the “tissue uptake, bladder” value is 77.4 ± 39.1 %ID/g. Besides, the “tissue uptake, kidneys” value in data set [5] was determined as 119.3 ± 16.5 %ID/g.
Turning to `O=C(O)CCc1ccc(O)c(CN(CCN(CC(=O)O)Cc2cc(CCC(=O)NCCCCCC(=O)NCCCC[C@H](NC(=O)N[C@@H](CCC(=O)O)C(=O)O)C(=O)O)ccc2O)CC(=O)O)c1` [PSMA-11, Glu-urea-Lys (Ahx)-HBED-CC], the “uptake in PSMA-positive LNCaP cells” value in data set [6] is on record as “readily taken up”. For the same compound, the Ki in data set [7] is 12 ± 2.8 nM.
